The target in assay [1] is T1, Histone deacetylase (HDAC1 and HDAC2) (Homo sapiens, UniProt Q13547+Q92769). Particulars: HeLa, at 5 µM.
Description: Inhibition of HDAC1/HDAC2 isolated from human HeLa cells at 5 umol/L incubated for 30 mins by Color de Lys assay
Another assay has as its system MDA-MB-231. Description: cells. Type of assay: functional, cell-based. Particulars: Homo sapiens, MDA-MB-231, 48 h.
The target of assay [2] is T1, Histone deacetylase (HDAC1 and HDAC2). Description: Inhibition of HDAC1/HDAC2 isolated from human HeLa cells incubated for 30 mins by Color de Lys assay. The class given is cell-based.
Assay [3] is described as follows: cells. Type of assay: functional, cell-based. Particulars: Homo sapiens, KG-1, 48 h.
Description: Cytotoxicity against human KG1 cells assessed as inhibition of cell proliferation after 48 hrs by MTT assay
For another assay, the system named is MCF7. Description: cells. Type of assay: functional, cell-based. Conditions: Homo sapiens, MCF7, 48 h.
Assay [4] in a line: cells. Type of assay: functional, cell-based, ES2. Particulars: Homo sapiens, ES-2, 48 h.
Description: Cytotoxicity against human ES2 cells assessed as inhibition of cell proliferation after 48 hrs by MTT assay
For a further assay, the target named is Histone deacetylase 1 (Homo sapiens, UniProt Q13547). Briefly: Inhibition of recombinant full length human HDAC1 (1 to 482 amino acids) expressed in Baculovirus infected insect Sf9 cells incubated for 30 mins measured by fluorescence assay.
The target in the next assay is T2, Histone deacetylase 8 (Homo sapiens, UniProt Q9BY41).
T2 sequence (Q9BY41 whole entry): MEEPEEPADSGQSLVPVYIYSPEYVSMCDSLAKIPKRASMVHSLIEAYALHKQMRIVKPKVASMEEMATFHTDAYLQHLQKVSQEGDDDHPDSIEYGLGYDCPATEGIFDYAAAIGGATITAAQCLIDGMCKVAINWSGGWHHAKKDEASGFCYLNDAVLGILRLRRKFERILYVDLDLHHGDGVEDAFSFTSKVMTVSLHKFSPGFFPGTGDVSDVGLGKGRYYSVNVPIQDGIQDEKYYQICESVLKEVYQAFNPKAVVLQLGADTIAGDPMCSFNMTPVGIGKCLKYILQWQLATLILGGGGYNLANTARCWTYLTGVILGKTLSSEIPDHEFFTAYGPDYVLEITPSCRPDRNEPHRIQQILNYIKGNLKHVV
Briefly: Inhibition of recombinant full length human HDAC8 expressed in Baculovirus infected insect Sf9 cells preincubated for 30 mins followed by substrate addition measured after 15 to 45 mins by luminescence assay.

In a further assay the test system is U-937. Briefly: cells. The class given is functional, cell-based. Conditions: Homo sapiens, U-937, 48 h.
The subject of another assay is HeLa. Description: cells. Type of assay: functional, cell-based. Particulars: Homo sapiens, 48 h.
The next assay deals with A549. Description: cells. Type of assay: functional, cell-based. Particulars: Homo sapiens, A549, 48 h.
Assay [5] addresses T3, Protein deacetylase HDAC6 (Homo sapiens, UniProt Q9UBN7).
T3 sequence (Q9UBN7 whole entry): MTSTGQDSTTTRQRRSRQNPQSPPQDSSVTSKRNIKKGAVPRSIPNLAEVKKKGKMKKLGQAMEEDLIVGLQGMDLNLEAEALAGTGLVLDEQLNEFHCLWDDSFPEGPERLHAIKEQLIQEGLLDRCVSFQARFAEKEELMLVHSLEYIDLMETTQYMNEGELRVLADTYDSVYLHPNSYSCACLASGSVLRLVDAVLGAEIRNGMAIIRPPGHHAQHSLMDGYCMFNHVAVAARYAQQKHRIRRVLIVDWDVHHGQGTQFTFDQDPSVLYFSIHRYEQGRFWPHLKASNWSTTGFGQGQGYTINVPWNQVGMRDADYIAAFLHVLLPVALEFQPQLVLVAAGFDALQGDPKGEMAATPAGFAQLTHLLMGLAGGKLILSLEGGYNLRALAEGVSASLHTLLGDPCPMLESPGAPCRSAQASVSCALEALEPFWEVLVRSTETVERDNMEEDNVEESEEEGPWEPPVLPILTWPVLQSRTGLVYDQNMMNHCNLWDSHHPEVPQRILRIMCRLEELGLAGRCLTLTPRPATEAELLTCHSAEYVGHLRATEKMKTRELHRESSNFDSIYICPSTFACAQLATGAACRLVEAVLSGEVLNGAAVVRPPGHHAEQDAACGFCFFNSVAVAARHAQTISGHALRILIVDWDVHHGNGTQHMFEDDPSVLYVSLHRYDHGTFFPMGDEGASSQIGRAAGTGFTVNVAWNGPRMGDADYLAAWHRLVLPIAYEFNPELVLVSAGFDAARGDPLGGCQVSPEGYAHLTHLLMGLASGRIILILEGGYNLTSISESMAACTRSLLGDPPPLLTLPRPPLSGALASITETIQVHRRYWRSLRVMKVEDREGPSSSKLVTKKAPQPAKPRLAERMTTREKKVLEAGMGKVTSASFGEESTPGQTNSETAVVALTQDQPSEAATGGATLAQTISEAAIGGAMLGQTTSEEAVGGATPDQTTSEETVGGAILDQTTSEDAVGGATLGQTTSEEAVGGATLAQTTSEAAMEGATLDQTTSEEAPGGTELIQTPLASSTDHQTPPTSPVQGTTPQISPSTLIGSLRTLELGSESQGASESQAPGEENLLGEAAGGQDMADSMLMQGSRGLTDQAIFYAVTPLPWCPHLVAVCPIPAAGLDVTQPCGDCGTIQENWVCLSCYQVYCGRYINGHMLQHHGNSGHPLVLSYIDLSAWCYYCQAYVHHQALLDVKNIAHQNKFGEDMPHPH
Description: Inhibition of recombinant full length human HDAC6 expressed in Baculovirus infected insect Sf9 cells incubated for 30 mins measured by fluorescence assay.

For the next assay, the system named is PC-3. Briefly: cells. Conditions: Homo sapiens, PC-3, 48 h. The class given is functional, cell-based.

Chain of Histone deacetylase 1 (Q13547 whole entry, the tested form may be a part): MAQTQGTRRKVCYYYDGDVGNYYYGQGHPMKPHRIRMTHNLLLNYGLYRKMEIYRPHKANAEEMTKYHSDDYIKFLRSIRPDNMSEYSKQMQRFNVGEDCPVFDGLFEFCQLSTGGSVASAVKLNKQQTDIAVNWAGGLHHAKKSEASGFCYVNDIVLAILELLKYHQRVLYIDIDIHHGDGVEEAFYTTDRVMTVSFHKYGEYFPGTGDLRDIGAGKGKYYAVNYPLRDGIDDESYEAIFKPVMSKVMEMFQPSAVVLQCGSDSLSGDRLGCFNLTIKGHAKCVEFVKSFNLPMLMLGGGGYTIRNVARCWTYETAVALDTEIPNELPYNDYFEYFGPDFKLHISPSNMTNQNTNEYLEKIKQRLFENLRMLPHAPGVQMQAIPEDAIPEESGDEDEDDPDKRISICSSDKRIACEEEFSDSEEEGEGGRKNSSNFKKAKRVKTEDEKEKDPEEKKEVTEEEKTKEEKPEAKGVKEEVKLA
T1 sequence (Q13547 whole entry, looked up): as the sequence (Q13547 whole entry, the tested form may be a part) above
T1 sequence (Q92769 whole entry, looked up): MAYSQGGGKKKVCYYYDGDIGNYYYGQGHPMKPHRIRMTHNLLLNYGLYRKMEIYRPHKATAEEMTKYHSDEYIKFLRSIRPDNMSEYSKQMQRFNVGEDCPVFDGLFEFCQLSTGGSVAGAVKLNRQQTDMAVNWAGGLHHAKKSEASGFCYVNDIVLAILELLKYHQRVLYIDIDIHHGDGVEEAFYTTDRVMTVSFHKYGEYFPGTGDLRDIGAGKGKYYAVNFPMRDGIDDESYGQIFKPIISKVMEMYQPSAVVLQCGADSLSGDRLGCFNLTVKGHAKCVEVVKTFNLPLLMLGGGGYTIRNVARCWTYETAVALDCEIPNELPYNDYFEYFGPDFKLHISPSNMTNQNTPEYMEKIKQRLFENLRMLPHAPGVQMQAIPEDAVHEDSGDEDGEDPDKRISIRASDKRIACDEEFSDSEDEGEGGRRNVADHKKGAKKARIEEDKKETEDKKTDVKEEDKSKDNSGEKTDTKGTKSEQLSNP
Description for A549: Cytotoxicity against human A549 cells assessed as inhibition of cell proliferation after 48 hrs by MTT assay
Description for HeLa: Cytotoxicity against human HeLa cells assessed as inhibition of cell proliferation after 48 hrs by MTT assay
Description for MCF7: Cytotoxicity against human MCF7 cells assessed as inhibition of cell proliferation after 48 hrs by MTT assay
Description for MDA-MB-231: Cytotoxicity against human MDA-MB-231 cells assessed as inhibition of cell proliferation after 48 hrs by MTT assay
Description for PC-3: Cytotoxicity against human PC3 cells assessed as inhibition of cell proliferation after 48 hrs by MTT assay
Description for U-937: Cytotoxicity against human U937 cells assessed as inhibition of cell proliferation after 48 hrs by MTT assay

For orientation: inhibition means the relative decrease from the control value, in per cent. Regarding `Nc1nc(N2CCOCC2)c2ncn(CC(=O)Nc3ccc(CC(=O)NO)cc3)c2n1`, the inhibition in [1] stood at 0%.

As to `Nc1nc(N2CCOCC2)c2ncn(CC(=O)NCCCC(=O)NO)c2n1`, the inhibition in assay [1] was -1%.

The term IC50 denotes the concentration needed to halve the response being measured. Turning to `O=C(CCCCNC(=O)Cn1cnc2c(Nc3ccccc3)nc(Nc3ccccc3)nc21)NO`, the inhibition in [1] amounted to 87%. For the same compound, the IC50 in the assay with MDA-MB-231 was 11.1 µM; in assay [2], 0.59 µmol/L; in the assay “cells [3]”, 34.7 µM; with MCF7, above 50 µM.

On to `CNc1ncnc2c1ncn2CC(=O)NCCCC(=O)NO`, for which the inhibition in [1] was 6%.

`O=C(CCCNC(=O)Cn1cnc2c(N3CCOCC3)ncnc21)NO`: the inhibition in [1] came to 15%.

Turning to `O=C(CCCCNC(=O)Cn1cnc2c(Nc3ccccc3)ncnc21)NO`, the inhibition in assay [1] came out at 59%. The IC50 in the assay on MDA-MB-231 is above 50 µM; in assay [2] it was 2.51 µmol/L; in the assay “cells [3]”, above 50 µM; with MCF7, above 50 µM.

`Nc1nc(N2CCOCC2)c2ncn(CC(=O)NCCCCCC(=O)NO)c2n1`: in assay [1], the inhibition turned out to be 53%. Moreover, the IC50 with MDA-MB-231 was 41.3 µM; in assay [2], 4.53 µmol/L; with MCF7, above 50 µM.

Consider `O=C(CCCCCCNC(=O)Cn1cnc2c(Nc3ccccc3)ncnc21)NO`, for which the inhibition in [1] was found to be 49%. In addition, the IC50 is 8.91 µM with MDA-MB-231, 2.94 µmol/L in assay [2], above 50 µM in the assay “cells [3]” and above 50 µM in the assay on MCF7.

With `O=C(Cc1ccc(NC(=O)Cn2cnc3c(N4CCOCC4)ncnc32)cc1)NO`, in assay [1], the inhibition turned out to be 25%.

Take `O=C(CNC(=O)Cn1cnc2c(NCc3ccccc3)ncnc21)NO`: the inhibition in [1] turned out to be 3%.

In the case of `CNc1ncnc2c1ncn2CC(=O)NCCC(=O)NO`, the inhibition in assay [1] came out at 10%.

Consider `O=C(CCNC(=O)Cn1cnc2c(N3CCOCC3)nc(Nc3ccccc3)nc21)NO`, for which the inhibition in [1] was found to be 56%. The IC50 in [2] is above 5 µmol/L.

As to `O=C(CCCCCNC(=O)Cn1cnc2c(N3CCOCC3)ncnc21)NO`, the inhibition in assay [1] stood at 49%. In assay [2], this compound yielded an IC50 above 5 µmol/L.

Turning to `O=C(CCCNC(=O)Cn1cnc2c(N3CCOCC3)nc(Nc3ccccc3)nc21)NO`, the inhibition in assay [1] stood at 69%. In assay [2], the IC50 is above 5 µmol/L.

Consider `O=C(CCCNC(=O)Cn1cnc2c(NCc3ccccc3)ncnc21)NO`, for which, in assay [1], the inhibition turned out to be 11%.

For the compound `O=C(CCCCCNC(=O)Cn1cnc2c(Nc3ccccc3)nc(Nc3ccccc3)nc21)NO`, the IC50 in “cells [4]” was determined as 13.4 µM; in the assay on MDA-MB-231 it was 1.61 µM; in assay [2], 0.3 µmol/L; at Histone deacetylase 1 it was 28 nM; at Histone deacetylase 8, 200 nM; in the assay with U-937, 4.07 µM. The IC50 was determined as 3.8 µM in the assay “cells [3]”; 9.08 µM with HeLa; 9.58 µM with MCF7; 18 µM with A549; 3.8 nM in assay [5]; 2.14 µM in the assay with PC-3. Also, the inhibition in [1] came to 80%.

As to `O=C(CCNC(=O)Cn1cnc2c(NCc3ccccc3)ncnc21)NO`, the inhibition in [1] worked out at 13%.

Turning to `O=C(CCCCCNC(=O)Cn1cnc2c(Nc3ccccc3)ncnc21)NO`, the inhibition in [1] was 72%. Further, the IC50 in the assay with MDA-MB-231 was 22.3 µM; in [2] it was 2.09 µmol/L; in “cells [3]”, above 50 µM; in the assay on MCF7, above 50 µM.

On to `Nc1nc(N2CCOCC2)c2ncn(CC(=O)NCCC(=O)NO)c2n1`, for which the inhibition in [1] was 20%.

On to `O=C(CCNC(=O)Cn1cnc2c(N3CCOCC3)ncnc21)NO`, for which the inhibition in [1] was found to be 3%.

As for `O=C(CCCCCNC(=O)Cn1cnc2c(N3CCOCC3)nc(Nc3ccccc3)nc21)NO`, the IC50 in the assay “cells [4]” came to 28 µM; in the assay on MDA-MB-231, 1.56 µM; in [2], 0.075 µmol/L; at Histone deacetylase 1, 35 nM; at Histone deacetylase 8 it was 150 nM; in the assay on U-937 it was 6.5 µM. The IC50 in “cells [3]” stood at 5.37 µM; in the assay with HeLa it was 18.2 µM; in the assay on MCF7, 18.6 µM; with A549, 46.1 µM; in assay [5] it was 2.6 nM; in the assay on PC-3, 6.44 µM. The inhibition in assay [1] was determined as 98%.

`CNc1ncnc2c1ncn2CC(=O)NCC(=O)NO`: the inhibition in [1] came to 3%.

For `O=C(CCCCCCNC(=O)Cn1cnc2c(Nc3ccccc3)nc(Nc3ccccc3)nc21)NO`, the IC50 is 8.95 µM in the assay “cells [4]”; 1.55 µM in the assay on MDA-MB-231; 0.51 µmol/L in assay [2]; 63 nM on Histone deacetylase 1; 320 nM at Histone deacetylase 8; 3.91 µM in the assay with U-937. Also, the IC50 in the assay “cells [3]” came to 2.88 µM; in the assay with HeLa it was 8.76 µM; in the assay on MCF7 it was 9.04 µM; in the assay on A549, 10.1 µM; in [5] it was 1.8 nM; in the assay on PC-3, 4.26 µM. Further, the inhibition in [1] stood at 95%.

Regarding `O=C(CCCCCNC(=O)Cn1cnc2c(NCc3ccccc3)ncnc21)NO`, in assay [1], the inhibition worked out at 70%. Further, the IC50 in the assay on MDA-MB-231 is 34.2 µM; in assay [2], 2.05 µmol/L; in the assay “cells [3]”, above 50 µM; in the assay on MCF7, above 50 µM.

These data come from ChEMBL document CHEMBL3621197, “Design, synthesis, and preliminary bioactivity studies of substituted purine hydroxamic acid derivatives as novel histone deacetylase (HDAC) inhibitors” (Medchemcomm, 2014).
